From patent publication US10780101B2, “Amide derivatives of squalamine for the treatment of infections” (VIRBAC, priority 2016, dated 2020)
Converted amounts (≈) assume the structure as drawn. Marks after values point to notes of the source that are not given here.

Columns and labels:
[1] = test system: P. aeruginosa Human ATCC 27853; assay: MIC determination, P. aeruginosa human ATCC 27853; format: cell-based; conditions: Pseudomonas aeruginosa, ATCC27853; Gram-negative; Mueller-Hinton medium, 24 h at 37° C.
Procedure, shortened: (§1)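 Broth microdilution in Mueller-Hinton medium, inoculum at OD 0.01, compounds (5 mg/mL stock in DMSO/methanol 50/50) serially diluted twofold. Plates incubated 24 h at 37° C. under humid atmosphere, read at OD 620 nm for MIC; duplicates.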

[2] = test system: P. aeruginosa Animal (1051575); assay: MIC determination, P. aeruginosa animal (1051575); format: cell-based; conditions: Pseudomonas aeruginosa; Gram-negative; Mueller-Hinton medium, 24 h at 37° C.
Procedure, shortened: as §1

E. coli Human ATCC 28922 = assay: MIC determination, E. coli human ATCC 28922; format: cell-based; conditions: Escherichia coli, ATCC28922; Gram-negative; Mueller-Hinton medium, 24 h at 37° C.
Procedure, shortened: as §1

S. aureus Animal (340) = assay: MIC determination, S. aureus animal (340); format: cell-based; conditions: Staphylococcus aureus; Gram-positive; Mueller-Hinton medium, 24 h at 37° C.
Procedure, shortened: as §1

P. aeruginosa (1051575) [3] = assay: Potentiation of ampicillin activity (combination MIC); format: cell-based, Pseudomonas aeruginosa; conditions: ampicillin 4 μg/mL; concentration of compound required to restore antibiotic activity
Protocol: This method requires the use of a 96-well plate: 100 μL of a liquid culture medium are placed in each well and then seeded with the microbial suspension prepared previously. The required volume to be seeded is calculated for an OD of 0.01, which corresponds to about 5×10^6 bacteria in each well. In this plate, the first line corresponds to a negative control (200 μL of sterile culture medium in each well), the second line corresponds to a positive control (100 μL of sterile culture medium+100 μL of the bacterial suspension), and the third line contains 192 μL of culture medium; 8 μL of compound of formula (I) to be tested are placed in each well. Thereafter, a cascade dilution is performed from this line. […] 92 μL of bacterial suspension are then added to lines 3 to 8. The results are read (the determination of the MIC (2 μg/mL of doxycycline) in the presence of X g/mL of compound of formula (I)) after 24 hours of incubation at 37° C. under a humid atmosphere. After 24 hours of incubation at 37° C., 40 μL of nitro tetrazolium iodide are added to each well to reveal the presence of live bacteria by staining the medium pink.
The procedure is identical to that indicated in Example 5 above. […]
The results are given in table V. They indicate the concentration of compound of formula (I) required to be able to restore the activity of the antibiotic under consideration.

[4] = test system: E. faecalis Human ATCC 29212; assay: MIC determination, E. faecalis human ATCC 29212; format: cell-based; conditions: Enterococcus faecalis, ATCC29212; Gram-positive; Mueller-Hinton medium, 24 h at 37° C.
Procedure, shortened: as §1

P. aeruginosa (1051575) [5] = assay: Potentiation of chloramphenicol activity (combination MIC); format: cell-based, Pseudomonas aeruginosa; conditions: concentration of compound required to restore antibiotic activity
P. aeruginosa (1051575) [6] = assay: Potentiation of erythromycin activity (combination MIC); format: cell-based, Pseudomonas aeruginosa; conditions: erythromycin 2 μg/mL; concentration of compound required to restore antibiotic activity
Procedure, shortened: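 Broth microdilution with wells seeded at OD 0.01 (about 5×10^6 bacteria/well). The test compound was serially diluted against each antibiotic held at a final 2 μg/mL. After 24 h at 37 °C in humid air, live bacteria were stained pink with nitro tetrazolium iodide; the value is the compound concentration restoring antibiotic activity.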

P. aeruginosa (1051575) [7] = assay: Potentiation of doxycycline activity (combination MIC); format: cell-based, Pseudomonas aeruginosa; conditions: for MIC - P. aeruginosa (1051575): content of compound of formula (I) to restore the doxycycline activity (at 2 μg/mL): in presence of doxycycline 2 μg/mL, 24 hours at 37° C.; for synergism when administered with doxycycline: doxycycline at 2 μg/mL
E. coli Animal (1956) = assay: MIC determination, E. coli animal (1956); format: cell-based; conditions: Escherichia coli; Gram-negative; Mueller-Hinton medium, 24 h at 37° C.
Procedure, shortened: as §1

SMILES | MIC [1] [mg/L] | MIC [2] [mg/L] | MIC (E. coli Human ATCC 28922) [mg/L] | MIC (S. aureus Animal (340)) [mg/L] | MIC P. aeruginosa (1051575) compound + ampicillin (P. aeruginosa (1051575) [3]) [mg/L] | MIC [4] [mg/L] | MIC P. aeruginosa (1051575) compound + chloramphenicol (P. aeruginosa (1051575) [5]; chloramphenicol 4 μg/mL) [mg/L] | MIC P. aeruginosa (1051575) compound + erythromycin (P. aeruginosa (1051575) [6]) | MIC - P. aeruginosa (1051575): content of compound of formula (I) to restore the doxycycline activity (at 2 μg/mL) (P. aeruginosa (1051575) [7]) [mg/L] | MIC (E. coli Animal (1956)) [mg/L] | synergism when administered with doxycycline (P. aeruginosa (1051575) [7]) | MIC P. aeruginosa (1051575) compound + chloramphenicol (P. aeruginosa (1051575) [5]; chloramphenicol 2 μg/mL) [mg/L]
CC(C)NC(=O)CC[C@@H](C)[C@H]1CCC2C3C(CC[C@@]21C)[C@@]1(C)CC[C@H](NCCCNCCCNCCCN)CC1C[C@H]3O (stereo partly drawn) [(7), 3β-norspermino-N-isopropylchenodeoxycholamide] | 30 (≈ 49.7 µM) | 15 (≈ 24.8 µM) | 15 (≈ 24.8 µM) | 2 (≈ 3.31 µM) | 15 | 4 (≈ 6.62 µM) | 2 | 15 µg/mL | 1 | 8 (≈ 13.2 µM) | – | –
CC(C)NC(=O)CC[C@@H](C)[C@H]1CCC2C3CCC4C[C@@H](NCCCN(C)CCCN)CC[C@]4(C)C3C[C@H](O)[C@@]21C (some centres unmarked) [(25)] | 28 (≈ 49.9 µM) | 28 (≈ 49.9 µM) | 14 (≈ 25 µM) | 14 (≈ 25 µM) | 56 | 14 (≈ 25 µM) | 2 | 28 µg/mL | 2 | 14 (≈ 25 µM) | noteworthy synergism | –
CC(C)NC(=O)CC[C@@H](C)[C@H]1CCC2C3C(CC[C@@]21C)[C@@]1(C)CC[C@H](NCCCNCCCN)CC1C[C@@H]3O (stereo partly drawn) [(15), 3β-norspermidino-N-isopropylursodeoxycholamide] | 56 (≈ 102 µM) | 112 (≈ 205 µM) | 56 (≈ 102 µM) | 56 (≈ 102 µM) | 110 | 112 (≈ 205 µM) | 2 | 55 µg/mL | 1 | 112 (≈ 205 µM) | – | 7
CC(C)NC(=O)CC[C@@H](C)[C@H]1CCC2C3C(CC[C@@]21C)[C@@]1(C)CC[C@H](NCCCN(C)CCCN)CC1C[C@H]3O (stereo partly drawn) [(27), 3β-(bis(3-aminopropyl)methylamine)-N-isopropylchenodeoxycholamide] | 32 (≈ 57 µM) | 128 (≈ 228 µM) | 16 (≈ 28.5 µM) | 8 (≈ 14.3 µM) | 64 | 16 (≈ 28.5 µM) | 1 | 28 µg/mL | 2 | 32 (≈ 57 µM) | – | 4
CC(C)NC(=O)CC[C@@H](C)[C@H]1CCC2C3CCC4C[C@@H](NCCCNCCCN)CC[C@]4(C)C3C[C@H](O)[C@@]21C (stereo partly drawn) [Compound (2), 3β-norspermidino-N-isopropyldeoxycholamide] | 28 (≈ 51.2 µM) | 14 (≈ 25.6 µM) | 14 (≈ 25.6 µM) | 2 (≈ 3.66 µM) | 28 | 14 (≈ 25.6 µM) | 0.9 | 3* μg/mL | 0.9 | 14 (≈ 25.6 µM) | noteworthy synergism | 0.9
CC(C)NC(=O)CC[C@@H](C)[C@H]1CCC2C3C(CC[C@@]21C)[C@@]1(C)CC[C@H](NCCCNCCCCNCCCN)CC1C[C@@H]3O (stereo partly drawn) [Compound (35), 3β-spermino-N-isopropylursodeoxycholamide] | 32 (≈ 51.8 µM) | 64 (≈ 104 µM) | 64 (≈ 104 µM) | 16 (≈ 25.9 µM) | 64 | 64 (≈ 104 µM) | 2 | 32 µg/mL | 2 | 64 (≈ 104 µM) | – | –
CC(C)NC(=O)CC[C@@H](C)[C@H]1CCC2C3C(CC[C@@]21C)[C@@]1(C)CC[C@H](NCCCNCCCN)CC1C[C@H]3O (stereo partly drawn) [(8), 3β-norspermidino-N-isopropylchenodeoxycholamide] | 54 (≈ 98.7 µM) | 27 (≈ 49.4 µM) | 14 (≈ 25.6 µM) | 3 (≈ 5.49 µM) | 27 | 8 (≈ 14.6 µM) | 2 | 27 µg/mL | 2 | 14 (≈ 25.6 µM) | – | –
CC(C)NC(=O)CC[C@@H](C)[C@H]1CCC2C3C(C[C@H](O)[C@@]21C)[C@@]1(C)CC[C@H](NCCCNCCCN)CC1C[C@H]3O (stereo partly drawn) [(5), 3β-norspermidino-N-isopropylcholamide] | 64 (≈ 114 µM) | 64 (≈ 114 µM) | 16 (≈ 28.4 µM) | 16 (≈ 28.4 µM) | 64 | 16 (≈ 28.4 µM) | 2 | 32* μg/mL | 1 | 32 (≈ 56.9 µM) | – | 4
